From paper PMC6978637 (Saudi Pharmaceutical Journal : SPJ, 2019)
“And” between values parts separate entries of the source, which are not always exact repeats. Identical values can stand only once. Like-named read-outs stand apart in the source and are kept apart here.

What was measured:
FGFR1 [1] = biological target: FGFR1 (Homo sapiens, UniProt P11362); assay: Z'-LYTE kinase enzyme inhibition assay, FGFR1; format: biochemical
FGFR1 [2] = assay: Z'-LYTE kinase enzyme inhibition assay, FGFR1; format: biochemical; conditions: for FGFR1-SI: selectivity index IC50/IC50, lowest IC50 of the compound = 1; for FGFR selectivity (in words): among FGFR1-4
FGFR2 [3] = biological target: FGFR2 (Homo sapiens, UniProt P21802); assay: biochemical; conditions: FGFR2-IC50
FGFR2 [4] = assay: biochemical; conditions: for FGFR selectivity (in words): among FGFR1-4; for FGFR2-SI: selectivity index IC50/IC50, lowest IC50 of the compound = 1
FGFR3 [5] = biological target: FGFR3 (Homo sapiens, UniProt P22607); assay: biochemical; format: biochemical
FGFR3 [6] = assay: biochemical; format: biochemical; conditions: for FGFR selectivity (in words): among FGFR1-4
FGFR4 = FGFR4 (Homo sapiens, UniProt P22455); assay: biochemical; format: biochemical
NIH-3T3 cells = assay: WST-1 cytotoxicity assay; format: cell-based, mouse; conditions: Mus musculus, NIH3T3, 48 h, read-out: NIH-3T3 Cells IC50
[7] = selectivity index IC50/IC50, lowest IC50 of the compound = 1

FGFR3 (Homo sapiens, UniProt P22607), sequence (P22607 23-806): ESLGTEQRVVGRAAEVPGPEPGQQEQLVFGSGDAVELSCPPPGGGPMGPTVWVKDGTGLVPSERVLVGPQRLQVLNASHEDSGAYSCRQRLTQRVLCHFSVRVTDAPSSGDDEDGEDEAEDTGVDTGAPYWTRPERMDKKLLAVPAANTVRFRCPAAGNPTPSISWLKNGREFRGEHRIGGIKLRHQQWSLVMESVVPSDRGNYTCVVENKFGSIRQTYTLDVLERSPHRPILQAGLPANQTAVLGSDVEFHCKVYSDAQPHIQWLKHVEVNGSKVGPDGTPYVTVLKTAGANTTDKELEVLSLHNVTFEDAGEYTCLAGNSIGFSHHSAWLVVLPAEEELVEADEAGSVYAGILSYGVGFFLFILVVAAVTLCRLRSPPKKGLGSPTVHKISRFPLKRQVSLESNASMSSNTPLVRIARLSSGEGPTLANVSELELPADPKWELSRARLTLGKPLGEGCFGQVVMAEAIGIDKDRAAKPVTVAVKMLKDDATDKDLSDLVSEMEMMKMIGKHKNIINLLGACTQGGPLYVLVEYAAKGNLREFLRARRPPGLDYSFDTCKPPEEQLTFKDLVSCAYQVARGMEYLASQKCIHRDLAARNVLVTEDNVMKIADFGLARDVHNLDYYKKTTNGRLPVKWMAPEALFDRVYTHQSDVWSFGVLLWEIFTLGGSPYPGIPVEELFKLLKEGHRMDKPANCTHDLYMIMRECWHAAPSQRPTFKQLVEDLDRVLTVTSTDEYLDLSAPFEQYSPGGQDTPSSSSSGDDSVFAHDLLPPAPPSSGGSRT
FGFR1 (Homo sapiens, UniProt P11362), sequence (P11362 22-822): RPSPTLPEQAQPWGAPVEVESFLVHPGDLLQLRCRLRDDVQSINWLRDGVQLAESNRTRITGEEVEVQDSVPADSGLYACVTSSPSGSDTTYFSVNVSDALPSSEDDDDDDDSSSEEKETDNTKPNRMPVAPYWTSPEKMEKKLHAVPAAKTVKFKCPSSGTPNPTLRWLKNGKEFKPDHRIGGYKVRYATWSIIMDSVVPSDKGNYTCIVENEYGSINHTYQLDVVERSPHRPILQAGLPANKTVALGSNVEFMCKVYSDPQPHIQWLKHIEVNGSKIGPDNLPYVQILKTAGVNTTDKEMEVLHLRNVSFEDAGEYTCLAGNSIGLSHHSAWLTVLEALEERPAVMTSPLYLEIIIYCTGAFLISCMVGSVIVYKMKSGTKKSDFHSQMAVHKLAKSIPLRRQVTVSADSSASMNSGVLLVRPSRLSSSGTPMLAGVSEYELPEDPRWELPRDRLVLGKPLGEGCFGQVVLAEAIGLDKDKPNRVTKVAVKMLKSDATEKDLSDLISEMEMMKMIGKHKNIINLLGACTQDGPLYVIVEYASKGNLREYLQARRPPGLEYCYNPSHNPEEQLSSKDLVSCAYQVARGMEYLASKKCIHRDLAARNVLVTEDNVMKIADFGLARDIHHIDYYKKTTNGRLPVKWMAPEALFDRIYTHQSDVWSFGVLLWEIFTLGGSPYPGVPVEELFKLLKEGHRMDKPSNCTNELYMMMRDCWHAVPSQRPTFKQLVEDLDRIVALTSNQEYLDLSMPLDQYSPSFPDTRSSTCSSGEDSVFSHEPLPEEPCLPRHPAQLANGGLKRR
FGFR4, sequence (P22455 22-802): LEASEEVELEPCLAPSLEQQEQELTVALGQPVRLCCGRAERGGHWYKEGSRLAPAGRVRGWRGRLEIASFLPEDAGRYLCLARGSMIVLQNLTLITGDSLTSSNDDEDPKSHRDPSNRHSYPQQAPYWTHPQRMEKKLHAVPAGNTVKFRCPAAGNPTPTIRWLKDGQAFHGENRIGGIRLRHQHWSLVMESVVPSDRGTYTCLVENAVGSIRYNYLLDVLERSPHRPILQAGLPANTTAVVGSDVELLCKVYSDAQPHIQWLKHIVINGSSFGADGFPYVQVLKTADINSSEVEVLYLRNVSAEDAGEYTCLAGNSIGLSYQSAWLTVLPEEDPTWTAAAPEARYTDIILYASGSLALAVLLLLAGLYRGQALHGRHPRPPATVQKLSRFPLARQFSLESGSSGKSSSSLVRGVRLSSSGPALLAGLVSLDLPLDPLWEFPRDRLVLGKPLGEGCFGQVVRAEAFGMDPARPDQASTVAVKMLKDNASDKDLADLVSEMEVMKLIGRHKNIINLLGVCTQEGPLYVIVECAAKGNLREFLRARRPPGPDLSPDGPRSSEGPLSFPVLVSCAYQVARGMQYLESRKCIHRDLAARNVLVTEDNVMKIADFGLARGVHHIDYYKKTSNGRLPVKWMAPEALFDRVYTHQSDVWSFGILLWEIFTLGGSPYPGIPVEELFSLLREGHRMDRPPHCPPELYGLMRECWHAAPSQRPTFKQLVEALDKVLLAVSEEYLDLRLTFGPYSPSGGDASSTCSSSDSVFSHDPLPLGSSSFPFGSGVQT
FGFR2 (Homo sapiens, UniProt P21802), sequence (P21802 22-821): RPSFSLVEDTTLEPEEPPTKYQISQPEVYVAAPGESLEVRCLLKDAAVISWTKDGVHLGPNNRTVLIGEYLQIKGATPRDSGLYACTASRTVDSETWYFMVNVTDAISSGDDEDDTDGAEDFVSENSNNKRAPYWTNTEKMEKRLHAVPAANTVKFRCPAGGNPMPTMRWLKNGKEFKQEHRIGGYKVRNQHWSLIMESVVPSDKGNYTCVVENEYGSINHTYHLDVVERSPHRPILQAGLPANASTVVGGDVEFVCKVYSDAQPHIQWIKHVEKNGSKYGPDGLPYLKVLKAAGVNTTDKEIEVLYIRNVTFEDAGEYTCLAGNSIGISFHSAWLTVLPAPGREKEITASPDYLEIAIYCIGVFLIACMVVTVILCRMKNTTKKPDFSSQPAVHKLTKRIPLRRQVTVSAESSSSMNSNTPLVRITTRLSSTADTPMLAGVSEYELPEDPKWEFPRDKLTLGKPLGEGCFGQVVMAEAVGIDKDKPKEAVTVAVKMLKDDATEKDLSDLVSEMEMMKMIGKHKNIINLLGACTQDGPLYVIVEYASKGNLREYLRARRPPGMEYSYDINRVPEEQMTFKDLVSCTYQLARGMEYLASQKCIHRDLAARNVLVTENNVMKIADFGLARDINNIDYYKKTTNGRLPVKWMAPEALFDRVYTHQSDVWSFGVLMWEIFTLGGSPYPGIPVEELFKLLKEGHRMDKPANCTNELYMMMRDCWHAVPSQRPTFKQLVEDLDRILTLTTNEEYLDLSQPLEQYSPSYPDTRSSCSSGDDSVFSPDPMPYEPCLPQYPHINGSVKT

IC50 (FGFR1 [1]; FGFR1-IC50) | better inhibitory potency against FGFR2 than FGFR1 (FGFR1 [2]; FGFR1 in compare to FGFR2) | FGFR1-SI (FGFR1 [2]) | IC50 (FGFR2 [3]) | IC50 (FGFR3 [5]; FGFR3-IC50) | FGFR4-SI (FGFR4) | IC50 (FGFR4) | better inhibitory potency against FGFR2 than FGFR4 (FGFR4; FGFR4 in compare to FGFR2) | FGFR selectivity (in words) (FGFR1 [2]) | IC50 (FGFR1 [1]; read-out: FGFR1-IC50) | IC50 (FGFR3 [5]; read-out: FGFR3-IC50) | IC50 (FGFR4; read-out: FGFR4-IC50) | SMILES | FGFR selectivity (in words) (FGFR2 [4]) | FGFR2-SI (FGFR2 [4]) | FGFR3-SI (FGFR3 [6]) | better inhibitory potency against FGFR2 than FGFR3 (FGFR3 [6]; FGFR3 in compare to FGFR2) | IC50 (NIH-3T3 cells) | FGFR selectivity (in words) (FGFR3 [6]) | FGFR3-SI (FGFR3 [6]; [7])
19.8 ± 3.32 nM | 3.3 fold | 3.333 | 5.95 nM | 1420 ± 423 nM | 6247.898 | 37.1 ± 0.965 µM | 6247.9 fold | – | – | – | – | O=C1Nc2ccc(-c3ccc4cc(O)ccc4c3)cc2/C1=C\c1ccc(N2CCOCC2)cc1 [Compound A1, (E)-5-(6-hydroxynaphthalen-2-yl)-3-(4-morpholinobenzylidene)indolin-2-one] | for FGFR2 | 1 | 238.648 | 238.6 fold | 1580 ± 171 nM | – | –
219 ± 4.32 nM | – | 25.948 | 8.44 ± 0.237 nM | 3460 ± 510 nM | 2514.228 | 21.2 ± 0.351 µM | – | – | – | – | – | O=C1Nc2ccc(-c3ccc(-c4ccc(O)cc4)cc3)cc2/C1=C\c1ccc(N2CCOCC2)cc1 [Compound A2, (E)-5-(4'-hydroxy-[1,1'-biphenyl]-4-yl)-3-(4-morpholinobenzylidene)indolin-2-one] | for FGFR2 | 1 | 409.791 | – | 949 ± 24.7 nM | – | –
686 ± 27.7 nM | – | 13.054 | – | 52.5 ± 4.7 nM | 69.878 | 3.67 ± 0.29 µM | – | – | – | – | – | O=C1Nc2ccc(-c3ccc(C(=O)N4CCOCC4)cc3)cc2/C1=C\c1ccc(N2CCOCC2)cc1 [Compound A3, (E)-5-[4-(morpholin-4-carbonyl)phenyl]-3-(4-morpholinobenzylidene)indolin-2-one] | – | – | – | – | 3260 ± 121 nM | for FGFR3 | 1
107 ± 3.84 nM | – | 1 | – | 195 ± 5.61 nM | 141.176 | 15.1 ± 0.313 µM | – | selectivity to FGFR1 and FGFR3 | – | – | – | O=C1Nc2ccc(-c3ccc(C(=O)N4CCCCC4)cc3)cc2/C1=C\c1ccc(N2CCOCC2)cc1 [Compound A4, (E)-3-(4-morpholinobenzylidene)-5-[4-(piperidine-1-carbonyl)phenyl]indolin-2-one] | – | – | 1.819 | – | 400 ± 100 nM | – | –
49 ± 0.688 nM | – | 1 | – | 1090 ± 47.3 nM | 16.785 | 0.823 ± 0.108 µM | – | selectivity to FGFR1 | – | – | – | O=C1Nc2ccc(-c3ccc(C(=O)N4CCCC4)cc3)cc2/C1=C\c1ccc(N2CCOCC2)cc1 [Compound A6, (E)-3-(4-morpholinobenzylidene)-5-[4-(pyrrolidine-1-carbonyl)phenyl]indolin-2-one] | – | – | 22.297 | – | 818 ± 241 nM | – | –
64.4 ± 1.23 nM | – | 3.369 | – | 19.1 ± 3.22 nM | 927.339 | 17.7 ± 0.329 µM | – | – | – | – | – | O=C1Nc2ccc(-c3ccc(C(=O)N4CCOCC4)cc3)cc2/C1=C\c1ccc(N2CCC(O)CC2)cc1 [Compound A9, (E)-3-[4-(4-hydroxypiperidin-1-yl)benzylidene]-5-[4-(morpholine-4-carbonyl)phenyl]indolin-2-one] | – | – | – | – | 1140 ± 220 nM | for FGFR3 | 1
344.7 ± 3.41 nM | – | 20.006 | – | 17.2 ± 0.419 nM | 1343.587 | 23.2 ± 0.271 µM | – | – | – | – | – | O=C1Nc2ccc(-c3ccc(C(=O)N4CCCCC4)cc3)cc2/C1=C\c1ccc(N2CCC(O)CC2)cc1 [Compound A10, (E)-3-[4-(4-hydroxypiperidin-1-yl)benzylidene]-5-[4-(piperidine-1-carbonyl)phenyl]indolin-2-one] | – | – | – | – | 983 ± 158 nM | for FGFR3 | 1
155 ± 6.18 nM | – | 1.464 | – | 106 ± 2.8 nM | 191.383 | 20.2 ± 0.259 µM | – | selectivity to FGFR1 and FGFR3 | – | – | – | CN1CCN(C(=O)c2ccc(-c3ccc4c(c3)/C(=C\c3ccc(N5CCC(O)CC5)cc3)C(=O)N4)cc2)CC1 [Compound A11, (E)-3-[4-(4-hydroxypiperidin-1-yl)benzylidene]-5-[4-(4-methylpiperazine-1-carbonyl)phenyl]indolin-2-one] | – | – | – | – | 87800 ± 4290 nM | – | 1
646 ± 10.9 nM | – | 28.719 | – | 22.5 ± 0.737 nM | 217.749 | 4.89 ± 0.402 µM | – | – | – | – | – | O=C1Nc2ccc(-c3ccc(C(=O)N4CCCC4)cc3)cc2/C1=C\c1ccc(N2CCC(O)CC2)cc1 [Compound A12, (E)-3-[4-(4-hydroxypiperidin-1-yl)benzylidene]-5-[4-(pyrrolidine-1-carbonyl)phenyl]indolin-2-one] | – | – | – | – | 4960 ± 187 nM | for FGFR3 | 1
38.7 ± 0.504 nM | – | 1 | – | 38.8 ± 1.35 nM | 382.588 | 14.8 ± 0.449 µM | – | selectivity to FGFR1 and FGFR3 | – | – | – | CN1CCN(c2ccc(/C=C3/C(=O)Nc4ccc(-c5ccc(C(=O)N6CCOCC6)cc5)cc43)cc2)CC1 [Compound A15, (E)-3-[4-(4-methylpiperazin-1-yl)benzylidene]-5-[4-(morpholine-4-carbonyl)phenyl]indolin-2-one] | – | – | – | – | 9500 ± 260 nM | – | 1.003
256 ± 28.1 nM | – | 17.919 | – | 14.3 nM and 14.2 nM | 1054.660 | 15.05 ± 0.0641 µM | – | – | – | – | – | CN1CCN(c2ccc(/C=C3/C(=O)Nc4ccc(-c5ccc(C(=O)N6CCCCC6)cc5)cc43)cc2)CC1 [Compound A16, (E)-3-[4-(4-methylpiperazin-1-yl)benzylidene]-5-[4-(piperidine-1-carbonyl)phenyl]indolin-2-one] | – | – | – | – | 626 ± 140 nM | for FGFR3 | 1
819.8 ± 3.63 nM | – | 61.547 | – | 13.3 ± 2.93 nM | 542.643 | 7.23 ± 0.288 µM | – | – | – | – | – | CN1CCN(C(=O)c2ccc(-c3ccc4c(c3)/C(=C\c3ccc(N5CCN(C)CC5)cc3)C(=O)N4)cc2)CC1 [Compound A17, (E)-3-[4-(4-methylpiperazin-1-yl)benzylidene]-5-[4-(4-methylpiperazine-1-carbonyl)phenyl]indolin-2-one] | – | – | – | – | 4700 ± 105 nM | for FGFR3 | 1
49.2 ± 2.52 nM | – | 1 | – | 156 ± 31.3 nM | 295.505 | 14.5 ± 0.211 µM | – | selectivity to FGFR1 | – | – | – | CN1CCN(c2ccc(/C=C3/C(=O)Nc4ccc(-c5ccc(C(=O)N6CCCC6)cc5)cc43)cc2)CC1 [Compound A18, (E)-3-[4-(4-methylpiperazin-1-yl)benzylidene]-5-[4-(pyrrolidine-1-carbonyl)phenyl]indolin-2-one] | – | – | 3.167 | – | 2540 ± 146 nM | – | –
3976 ± 0.354 nM | – | 3.658 | – | 1090 ± 477 nM | 5.641 | 6.13 ± 0.208 µM | – | – | – | – | – | O=CN1CCN(c2ccc(/C=C3/C(=O)Nc4ccc(-c5ccc6cc(O)ccc6c5)cc43)cc2)CC1 [Compound A25, (E)-4-{4-{[5-(6-hydroxynaphthalen-2-yl)-2-oxoindolin-3-ylidene]methyl}phenyl}piperazine-1-carbaldehyde] | – | – | – | – | 24500 ± 306 nM | – | 1
– | – | 1 | – | – | 24.028 | – | – | – | 422 ± 40.3 nM | 481 ± 24.1 nM | 10.1 ± 0.322 µM | O=CN1CCN(c2ccc(/C=C3/C(=O)Nc4ccc(-c5ccc(-c6ccc(O)cc6)cc5)cc43)cc2)CC1 [Compound A26, (E)-4-{4-{[5-(4'-hydroxy-[1,1'-biphenyl]-4-yl)-2-oxoindolin-3-ylidene]methyl}phenyl}piperazine-1-carbaldehyde] | – | – | 1.14 | – | 2500 ± 268 nM | – | –
77.3 ± 3.14 nM | – | 2.299 | – | 33.6 ± 0.574 nM | 209.223 | 7.03 ± 0.243 µM | – | – | – | – | – | O=CN1CCN(c2ccc(/C=C3/C(=O)Nc4ccc(-c5ccc(C(=O)N6CCCCC6)cc5)cc43)cc2)CC1 [Compound A28, (E)-4-{4-{ {2-oxo-5-[4-(piperidine-1-carbonyl)phenyl]indolin-3-ylidene}methyl}phenyl}piperazine-1-carbaldehyde] | – | – | – | – | 839 ± 232 nM | – | 1
9130 ± 1760 nM | – | 48.818 | – | 187 ± 4.12 nM | 32.626 | 6.1 ± 0.347 µM | – | – | – | – | – | CN1CCN(C(=O)c2ccc(-c3ccc4c(c3)/C(=C\c3ccc(N5CCN(C=O)CC5)cc3)C(=O)N4)cc2)CC1 [Compound A29, (E)-4-{4-{ {5-[4-(4-methylpiperazine-1-carbonyl)phenyl]-2-oxoindolin-3-ylidene}methyl}phenyl}piperazine-1-carbaldehyde] | – | – | – | – | 10100 ± 251 nM | – | 1
67.2 ± 2.92 nM | – | 1 | – | 193 ± 39.3 nM | 94.136 | 6.32 ± 0.322 µM | – | – | – | – | – | O=CN1CCN(c2ccc(/C=C3/C(=O)Nc4ccc(-c5ccc(C(=O)N6CCCC6)cc5)cc43)cc2)CC1 [Compound A30, (E)-4-{4-{ {2-oxo-5-[4-(pyrrolidine-1-carbonyl)phenyl]indolin-3-ylidene}methyl}phenyl}piperazine-1-carbaldehyde] | – | – | 2.880 | – | 1590 ± 224 nM | – | –
